{"source": "patent US10485814B2", "about": "“Nicotinamide riboside analogs and pharmaceutical compositions and uses thereof” (GlaxoSmithKline Intellectual Property (No. 2) Limited, priority 2014, dated 2019)", "key": {"Human dermal fibroblasts": {"tested_on": "Human dermal fibroblasts", "test": "UVA-induced gene expression in dermal fibroblasts (QPCR)", "assay_type": "cell-based", "details": "NRH 200 μM for 5 days, UVA 5 or 7.5 J/cm^2", "experimental": "Human dermal fibroblasts were grown in regular culture media as described in example 1 and seeded in 12-well plates at 2×10^5 cells per well for overnight. Before UVA exposure, culture media were removed and PBS (500 μl) was added to each well. Cells were treated with NRH at 200 μM in culture media for 5 days, and only exposed to UVA at 5 J/cm^2 or 7.5 J/cm^2 every other day on day 0 and day 3. The Newport DS-101103 UV Solar Simulator with UV-A-F filter (Sol-UV-A-F) (Newport Corporate) was used as the UVA emitter. Measurement of the irradiation was taken using an ILT-1400-A radiometer/photometer with a UVA probe (SSL001A, international light technologies, Inc.). After UVA exposure, PBS was removed from each well and media with NRH were added to cells. Cells were harvested for RNA isolation after 5 days treatment."}, "[1]": {"tested_on": "Reconstructed human epidermis (EpiDerm, EPI-200)", "test": "UVB-induced inflammation mediators in reconstructed epidermal equivalents", "assay_type": "cell-based", "details": "topical 1 hr pre-treatment, NRH 0.1% or niacinamide 3%; UVB 150 mJ/cm^2; media 6 hr post irradiation", "description": "Solar Ultraviolet (UV) light exposure on skin causes photoaging, sunburn, DNA damages and carcinogenesis. UV radiation (UVR) also results in inflammation, which can be measured in vitro by pro-inflammatory mediators, e.g., TNF-α, IL-8. The in vitro reconstructed human epidermis (RHE) model is used to evaluate the anti-inflammatory effect of NRH.\nReconstructed human epidermis (EpiDerm, EPI-200, made of normal human epidermal keratinocytes, MatTek, Ashland, Mass.), were placed into media (EPI-100-ASY, 1.0 ml/well of 6-well plates) and incubated overnight at 37° C./5% CO2. The media was replenished with fresh culture media prior to study. NRH at 0.1% and niacinamide at 3% in vehicle (50% H2O/35% ethanol/15% propylene glycol, v/v/v) were applied topically at 6 μl and then gently spread onto the skin equivalents (˜20 rotations) using the rubber side of a plunger of 1 ml syringe. Vehicle was served as an untreated control. After 1 hr pre-treatment with NRH, niacinamide, or vehicle control, the EpiDerm tissues were transferred to a sterile 6-well plate containing 1 ml of DPBS per well and then exposed to UVB at 150 mJ/cm^2. The Newport Solar Simulator System (Power unit 69920, and Lamp 91192-1000, Newport Corporate, Irvine, Calif.) was used as the UVB emitter to achieve a UVB irradiation of 150 mJ/cm^2. Measurement of the irradiation was taken using an ILT-1400 Handheld, Portable Radiometer/Photometer (International Light Technologies, Inc., Peabody, Mass.) with a UVB detector (SEL240/T2ACT5, 235-307 nm, International Light Technologies, Inc.). After UVB irradiation, EpiDerm tissues were transferred back to the 6-well plate containing media and incubated at 37° C./5% CO2 for 6 hours. At the end of the incubation (6 hr post UVB irradiation), culture media were collected for the measurement of IL-8, and TNF-α concentration by MagPix (Millipore, HCYTOMAG-60K)."}}, "note": "“Also recorded” adds a separate entry of the source.", "data": [{"compound": "NC(=O)C1=CN([C@@H]2O[C@H](CO)[C@@H](O)[C@H]2O)C=CC1", "note": "[NRH, dihydronicotinamide riboside]", "values": [{"measurement": "COX-2 expression compared to UVA alone", "setting": "Human dermal fibroblasts", "value": "reduced; also recorded: decreases"}, {"measurement": "NQO-1 expression compared to UVA alone", "setting": "Human dermal fibroblasts", "value": "increases"}, {"measurement": "NRF-2 expression compared to UVA alone", "setting": "Human dermal fibroblasts", "value": "increases"}, {"measurement": "UVB-induced IL-8", "setting": "[1]", "value": "inhibited; also recorded: reduces"}, {"measurement": "UVB-induced TNF-α", "setting": "[1]", "value": "inhibited; also recorded: reduces"}]}]}
